Data published in ChEMBL document CHEMBL5505977, “Discovery of novel pyrrolo[2,3-d]pyrimidines as potent menin-mixed lineage leukemia interaction inhibitors” (Eur J Med Chem, 2024).
pIC50: −log10 of the molar value. Activity calls are given as the source filed them. The rule behind the calls is not given here.

How the values were obtained:
Menin = molecular target: T1, Menin (Homo sapiens, UniProt O00255); test: Binding affinity to menin (unknown origin) incubated for 1 hr by fluorescence polarization assay
T1 sequence (O00255 whole entry): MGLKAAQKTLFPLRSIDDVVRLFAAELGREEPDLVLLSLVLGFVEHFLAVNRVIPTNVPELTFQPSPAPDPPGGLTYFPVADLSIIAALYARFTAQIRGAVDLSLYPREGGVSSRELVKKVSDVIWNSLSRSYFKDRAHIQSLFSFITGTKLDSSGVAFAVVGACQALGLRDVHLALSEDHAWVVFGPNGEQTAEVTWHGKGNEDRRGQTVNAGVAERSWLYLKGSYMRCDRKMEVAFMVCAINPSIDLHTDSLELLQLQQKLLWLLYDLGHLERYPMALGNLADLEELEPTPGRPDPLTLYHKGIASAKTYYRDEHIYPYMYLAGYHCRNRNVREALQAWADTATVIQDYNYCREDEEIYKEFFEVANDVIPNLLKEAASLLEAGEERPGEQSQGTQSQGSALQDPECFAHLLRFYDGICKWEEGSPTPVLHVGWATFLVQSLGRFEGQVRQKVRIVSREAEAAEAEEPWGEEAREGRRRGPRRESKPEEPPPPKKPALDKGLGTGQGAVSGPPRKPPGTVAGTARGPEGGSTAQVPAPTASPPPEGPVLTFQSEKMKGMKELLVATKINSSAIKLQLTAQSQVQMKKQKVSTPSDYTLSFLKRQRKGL

HL-60 = test: Antiproliferative activity against human HL-60 cells incubated for 72 hrs by MTT assay; assay type: functional, cell-based; settings: HL-60, 72 h
MV4-11 [1] = test: cells; settings: Homo sapiens, MV4-11, 72 h
Description: Antiproliferative activity against human MV4-11 cells incubated for 72 hrs by MTT assay

MV4-11 [2] = test: Induction of apoptosis in human MV4-11 cells assessed as viable cells at 1 uM incubated for 24 hrs by FITC Annexin-V/PI staining based flow cytometry analysis (reference value: 94.27%); assay type: functional; settings: read-out: Activity
MV4-11 [3] = test: Induction of apoptosis in human MV4-11 cells assessed as early apoptotic cells at 1 uM incubated for 24 hrs by FITC Annexin-V/PI staining based flow cytometry analysis (reference value: 2.68%); assay type: functional
MV4-11 [4] = test: Induction of apoptosis in human MV4-11 cells assessed as late apoptotic cells at 1 uM incubated for 24 hrs by FITC Annexin-V/PI staining based flow cytometry analysis (reference value: 3%); assay type: functional
MV4-11 [5] = test: Induction of apoptosis in human MV4-11 cells assessed as necrotic cells at 1 uM incubated for 24 hrs by FITC Annexin-V/PI staining based flow cytometry analysis (reference value: 0.04%); assay type: functional
MV4-11 [6] = test: Induction of apoptosis in human MV4-11 cells assessed as viable cells at 10 uM incubated for 24 hrs by FITC Annexin-V/PI staining based flow cytometry analysis (reference value: 94.27%); assay type: functional; settings: read-out: Activity
MV4-11 [7] = test: Induction of apoptosis in human MV4-11 cells assessed as early apoptotic cells at 10 uM incubated for 24 hrs by FITC Annexin-V/PI staining based flow cytometry analysis (reference value: 2.68%); assay type: functional
MV4-11 [8] = test: Induction of apoptosis in human MV4-11 cells assessed as late apoptotic cells at 10 uM incubated for 24 hrs by FITC Annexin-V/PI staining based flow cytometry analysis (reference value: 3%); assay type: functional
MV4-11 [9] = test: Induction of apoptosis in human MV4-11 cells assessed as necrotic cells at 10 uM incubated for 24 hrs by FITC Annexin-V/PI staining based flow cytometry analysis (reference value: 0.04%); assay type: functional
MV4-11 [10] = test: Induction of cell cycle arrest in human MV4-11 cells assessed as accumulation of cells at G0/G1 phase at 10 uM incubated for 24 hrs by PI/RNase staining based flow cytometry analysis; assay type: functional
MV4-11 [11] = test: Effect on cell differentiation in human MV4-11 cells assessed as decrease in HOXA9 expression level incubated for 48 hrs by qPCR analysis; assay type: functional, cell-based
MV4-11 [12] = test: Effect on cell differentiation in human MV4-11 cells assessed as decrease in HOXA9 expression level at 5 uM by qPCR analysis; assay type: functional, cell-based; settings: time 24-48 hrs, TDE = time-dependent effect
MV4-11 [13] = test: Effect on cell differentiation in human MV4-11 cells assessed as decrease in MEIS1 expression level incubated for 48 hrs by qPCR analysis; assay type: functional, cell-based
MV4-11 [14] = test: Effect on cell differentiation in human MV4-11 cells assessed as decrease in MEIS1 expression level at 5 uM by qPCR analysis; assay type: functional, cell-based; settings: time 24-48 hrs, TDE = time-dependent effect
MV4-11 [15] = test: Effect on cell differentiation in human MV4-11 cells assessed as assessed as increase in CD11b protein expression at M2-1 at 1 uM incubated for 7 days by flow cytometry analysis (reference value: 86.12%); assay type: functional; settings: time 7 day
MV4-11 [16] = test: Effect on cell differentiation in human MV4-11 cells assessed as assessed as increase in CD11b protein expression at M2-2 at 1 uM incubated for 7 days by flow cytometry analysis (reference value: 13.86%); assay type: functional; settings: time 7 day
MV4-11 [17] = test: Effect on cell differentiation in human MV4-11 cells assessed as assessed as increase in CD11b protein expression at M2-1 at 10 uM incubated for 7 days by flow cytometry analysis (reference value: 86.12%); assay type: functional; settings: time 7 day
MV4-11 [18] = test: Effect on cell differentiation in human MV4-11 cells assessed as assessed as increase in CD11b protein expression at M2-2 at 10 uM incubated for 7 days by flow cytometry analysis (reference value: 13.86%); assay type: functional; settings: time 7 day
SU-DHL-6 = test: Antiproliferative activity against human SU-DHL-6 cells incubated for 72 hrs by MTT assay; assay type: functional, cell-based; settings: SU-DHL-6, 72 h
Pfeiffer = test: Antiproliferative activity against human Pfeiffer cells incubated for 72 hrs by MTT assay; assay type: functional, cell-based
Raji = test: Antiproliferative activity against human Raji cells incubated for 72 hrs by MTT assay; assay type: functional, cell-based
Ramos = test: Antiproliferative activity against human Ramos cells incubated for 72 hrs by MTT assay; assay type: functional, cell-based
HCT-116 = test: Antiproliferative activity against human HCT-116 cells incubated for 72 hrs by MTT assay; assay type: functional, cell-based; settings: HCT-116, 72 h
MCF7 = test: Antiproliferative activity against human MCF7 cells incubated for 72 hrs by MTT assay; assay type: functional, cell-based; settings: MCF7, 72 h
[19] = Antiproliferative activity against human NCM460 cells incubated for 72 hrs by MTT assay; assay type: toxicity, cell-based
MV4-11 [20] = test: Induction of apoptosis in human MV4-11 cells assessed as viable cells at 0.1 uM incubated for 24 hrs by FITC Annexin-V/PI staining based flow cytometry analysis (reference value: 94.27%); assay type: functional; settings: read-out: Activity
MV4-11 [21] = test: Induction of apoptosis in human MV4-11 cells assessed as early apoptotic cells at 0.1 uM incubated for 24 hrs by FITC Annexin-V/PI staining based flow cytometry analysis (reference value: 2.68%); assay type: functional
MV4-11 [22] = test: Induction of apoptosis in human MV4-11 cells assessed as late apoptotic cells at 0.1 uM incubated for 24 hrs by FITC Annexin-V/PI staining based flow cytometry analysis (reference value: 3%); assay type: functional
MV4-11 [23] = test: Induction of apoptosis in human MV4-11 cells assessed as necrotic cells at 0.1 uM incubated for 24 hrs by FITC Annexin-V/PI staining based flow cytometry analysis (reference value: 0.04%); assay type: functional
MV4-11 [24] = test: Induction of cell cycle arrest in human MV4-11 cells assessed as accumulation of cells at G0/G1 phase incubated for 24 hrs by PI/RNase staining based flow cytometry analysis; assay type: functional; settings: dose 0.1-10 µM
MV4-11 [25] = test: Effect on cell differentiation in human MV4-11 cells assessed as decrease in HOXA9 expression level at 0.5 uM by qPCR analysis; assay type: functional, cell-based; settings: time 24-48 hrs, TDE = time-dependent effect
MV4-11 [26] = test: Effect on cell differentiation in human MV4-11 cells assessed as decrease in MEIS1 expression level at 0.5 uM by qPCR analysis; assay type: functional, cell-based; settings: time 24-48 hrs, TDE = time-dependent effect
MV4-11 [27] = test: Effect on cell differentiation in human MV4-11 cells assessed as assessed as increase in CD11b protein expression at M2-1 at 0.1 uM incubated for 7 days by flow cytometry analysis (reference value: 86.12%); assay type: functional; settings: time 7 day
MV4-11 [28] = test: Effect on cell differentiation in human MV4-11 cells assessed as assessed as increase in CD11b protein expression at M2-2 at 0.1 uM incubated for 7 days by flow cytometry analysis (reference value: 13.86%); assay type: functional; settings: time 7 day

For CCS(=O)(=O)c1ccc(N2CC(CN3CCC(n4cc(-c5ccc(F)cc5)c5c(N)ncnc54)CC3)C2)cc1, the pIC50 (Menin) was 6.35, the pIC50 (HL-60) was < 5.00 and the pIC50 (MV4-11 [1]) was 5.89.
For CCCc1cc2c(N3CCN(C4=NCC(C)(C)S4)CC3)ncnc2s1, the pIC50 (HL-60) was < 5.00, the viability at 1 µM (MV4-11 [2]) was 93.8% and the Activity (MV4-11 [3]) was 3.12%. It also gave an Activity (MV4-11 [4]) of 3.02%, an Activity (MV4-11 [5]) of 0.09% and a viability at 10 µM (MV4-11 [6]) of 68%. The Activity (MV4-11 [7]) was 13.22%, the Activity (MV4-11 [8]) was 18.52% and the Activity (MV4-11 [9]) was 0.19%. For the same molecule, the Activity (MV4-11 [10]) was “Active”, the Activity (MV4-11 [11]) was “Dose-Dependent Effect” and the Activity (MV4-11 [12]) was “Tde”. The Activity (MV4-11 [13]) was “Dose-Dependent Effect”, the Activity (MV4-11 [14]) was “Tde” and the Activity (MV4-11 [15]) was 79%. The Activity (MV4-11 [16]) was 21%, the Activity (MV4-11 [17]) was 47.84% and the Activity (MV4-11 [18]) was 52.13%.
For CC(C)(C)OC(=O)N1CC(S(=O)(=O)c2ccc(N3CC(CN4CCC(n5cc(-c6ccc(F)cc6)c6c(N)ncnc65)CC4)C3)cc2)C1, the pIC50 (Menin) was 5.94, the pIC50 (HL-60) was < 5.00 and the pIC50 (MV4-11 [1]) was 5.87.
With CS(=O)(=O)c1ccc(N2CC(CN3CCC(n4cc(-c5ccc(F)cc5)c5c(N)ncnc54)CC3)C2)cc1 the pIC50 (Menin) was 6.14, the pIC50 (HL-60) was < 5.00 and the pIC50 (MV4-11 [1]) was 5.69.
With N#Cc1ccc(N2CC(CN3CCC(n4cc(-c5ccc(F)cc5)c5c(N)ncnc54)CC3)C2)cc1 the pIC50 (Menin) was 6.42, the pIC50 (HL-60) was < 5.00 and the pIC50 (SU-DHL-6) was 5.16. For the same molecule, the pIC50 (Pfeiffer) was < 5.00, the pIC50 (Raji) was < 5.00 and the pIC50 (Ramos) was < 5.00. The pIC50 (HCT-116) was < 5.00, the pIC50 (MCF7) was < 5.00 and the IC50 at 72 h [19] was > 10000 nM. It also gave a viability at 1 µM (MV4-11 [2]) of 91%, an Activity (MV4-11 [3]) of 4.53% and an Activity (MV4-11 [4]) of 4.23%. For the same molecule, the Activity (MV4-11 [5]) was 0.14%, the viability at 10 µM (MV4-11 [6]) was 55.8% and the Activity (MV4-11 [7]) was 8.52%. It also gave an Activity (MV4-11 [8]) of 34.56%, an Activity (MV4-11 [9]) of 1.09% and a viability at 0.1 µM (MV4-11 [20]) of 93.9%. It also gave an Activity (MV4-11 [21]) of 3.34%, an Activity (MV4-11 [22]) of 2.75% and an Activity (MV4-11 [23]) of 0.05%. For the same molecule, the Activity (MV4-11 [24]) was “Dose-Dependent Effect”, the Activity (MV4-11 [11]) was “Dose-Dependent Effect” and the Activity (MV4-11 [25]) was “Tde”. For the same molecule, the Activity (MV4-11 [13]) was “Dose-Dependent Effect”, the Activity (MV4-11 [26]) was “Tde” and the Activity (MV4-11 [15]) was 68.53%. For the same molecule, the Activity (MV4-11 [16]) was 31.47%, the Activity (MV4-11 [17]) was 30.31% and the Activity (MV4-11 [18]) was 69.67%. It also gave an Activity (MV4-11 [27]) of 85.59%, an Activity (MV4-11 [28]) of 14.39% and a pIC50 (MV4-11 [1]) of 5.97.
With N#Cc1ccc(N2CC(CN3CCC(n4ccc5c(Cl)ncnc54)CC3)C2)cc1 the pIC50 (Menin) was < 5.00, the pIC50 (HL-60) was < 5.00 and the pIC50 (MV4-11 [1]) was 5.18.
In the case of Nc1ncnc2c1c(-c1ccc(F)cc1)cn2C1CCN(CC2CN(c3ccc(S(=O)(=O)C4CCC4)cc3)C2)CC1, the pIC50 (Menin) was 6.28, the pIC50 (HL-60) was 5.06 and the pIC50 (MV4-11 [1]) was 5.77.
For CN1CCN(c2ncnc3c2ccn3C2CCN(CC3CN(c4ccc(C#N)cc4)C3)CC2)CC1, the pIC50 (Menin) was < 5.00, the pIC50 (HL-60) was < 5.00 and the pIC50 (MV4-11 [1]) was < 5.00.
For Nc1ncnc2c1c(-c1ccc(F)cc1)cn2C1CCN(CC2CN(c3ccc(S(=O)(=O)C4CCCC4)cc3)C2)CC1, the pIC50 (Menin) was 5.98, the pIC50 (HL-60) was < 5.00 and the pIC50 (MV4-11 [1]) was 5.71.
